From paper PMC5298231, “The Malaria Parasite's Lactate Transporter PfFNT Is the Target of Antiplasmodial Compounds Identified in Whole Cell Phenotypic Screens” (PLoS Pathogens, 2017)
Read-outs that look alike come from different tables or passages of the source.

System: erythrocytes infected with 3D7 trophozoites
Format: cell-based, Plasmodium falciparum
Conditions: for Folate level, Log2 (treated vs control) / Geranylgeranyl pyrophosphate level, Log2 (treated vs control): sheet Log2; for Folate level, Log2 (treated vs control): medMz 440.132; for Geranylgeranyl pyrophosphate level, Log2 (treated vs control): medMz 449.186; for Ratio, Farnesyl diphosphate: metabolite Farnesyl diphosphate (medMz 381.123); for Ratio, Folate: metabolite Folate (medMz 440.132); for Ratio, Geranylgeranyl pyrophosphate: metabolite Geranylgeranyl pyrophosphate (medMz 449.186)

COc1ccc2c(c1)OC(O)(C(F)(F)C(F)(F)F)CC2=O (stereo not shown) [MMV007839]
NADH log2 ratio (+MMV007839/-MMV007839) (Av 6hr, 6 μM): -2.783
NADP+ log2 ratio (+MMV007839/-MMV007839) (Av 6hr, 6 μM): -0.3285
Octoluse Bisphosphate log2 ratio (+MMV007839/-MMV007839) (Av 6hr, 6 μM): 0.9087
Ornithine log2 ratio (+MMV007839/-MMV007839) (Av 6hr, 6 μM): -0.4177
Orotate log2 ratio (+MMV007839/-MMV007839) (Av 6hr, 6 μM): -1.6355
Orotidine 5-phosphate log2 ratio (+MMV007839/-MMV007839) (Av 6hr, 6 μM): -1.249
Orotidine log2 ratio (+MMV007839/-MMV007839) (Av 6hr, 6 μM): -0.6749
PAEF log2 ratio (+MMV007839/-MMV007839) (Av 6hr, 6 μM): 0.8061
PAVH log2 ratio (+MMV007839/-MMV007839) (Av 6hr, 6 μM): -0.07734
PD log2 ratio (+MMV007839/-MMV007839) (Av 6hr, 6 μM): 1.197
PDAV log2 ratio (+MMV007839/-MMV007839) (Av 6hr, 6 μM): 1.2
PE log2 ratio (+MMV007839/-MMV007839) (Av 6hr, 6 μM): 1.699
PEE log2 ratio (+MMV007839/-MMV007839) (Av 6hr, 6 μM): 1.042
PHF log2 ratio (+MMV007839/-MMV007839) (Av 6hr, 6 μM): 0.9826
PPVQ log2 ratio (+MMV007839/-MMV007839) (Av 6hr, 6 μM): -0.2514
PVNF log2 ratio (+MMV007839/-MMV007839) (Av 6hr, 6 μM): 0.6194
PVQ log2 ratio (+MMV007839/-MMV007839) (Av 6hr, 6 μM): 1.502
PVQA log2 ratio (+MMV007839/-MMV007839) (Av 6hr, 6 μM): -0.1116
Pantothenate log2 ratio (+MMV007839/-MMV007839) (Av 6hr, 6 μM): -0.4384
Phenylalanine log2 ratio (+MMV007839/-MMV007839) (Av 6hr, 6 μM): 0.1437
Phosphoenolpyruvate log2 ratio (+MMV007839/-MMV007839) (Av 6hr, 6 μM): 0.09862
Pipecolate log2 ratio (+MMV007839/-MMV007839) (Av 6hr, 6 μM): 1.035
Proline log2 ratio (+MMV007839/-MMV007839) (Av 6hr, 6 μM): 0.2232
Pyridoxine log2 ratio (+MMV007839/-MMV007839) (Av 6hr, 6 μM): 0.219
Pyruvate log2 ratio (+MMV007839/-MMV007839) (Av 6hr, 6 μM): 2.1785
Ribose-5-phosphate log2 ratio (+MMV007839/-MMV007839) (Av 6hr, 6 μM): 0.5462
S-Adenosyl-L-homocysteine log2 ratio (+MMV007839/-MMV007839) (Av 6hr, 6 μM): -0.1116
SDGLA log2 ratio (+MMV007839/-MMV007839) (Av 6hr, 6 μM): -0.7918
SFGD log2 ratio (+MMV007839/-MMV007839) (Av 6hr, 6 μM): -0.1482
Sedoheptoluse bisphosphate log2 ratio (+MMV007839/-MMV007839) (Av 6hr, 6 μM): -0.5568
Sedoheptulose-1/7-phosphate log2 ratio (+MMV007839/-MMV007839) (Av 6hr, 6 μM): 0.1885
Serine log2 ratio (+MMV007839/-MMV007839) (Av 6hr, 6 μM): 0.02139
Succinate log2 ratio (+MMV007839/-MMV007839) (Av 6hr, 6 μM): 0.1816
Succinate semialdehyde log2 ratio (+MMV007839/-MMV007839) (Av 6hr, 6 μM): -0.438
TNVK log2 ratio (+MMV007839/-MMV007839) (Av 6hr, 6 μM): -0.1213
Threonine log2 ratio (+MMV007839/-MMV007839) (Av 6hr, 6 μM): 0.6908
Tryptophan log2 ratio (+MMV007839/-MMV007839) (Av 6hr, 6 μM): -0.04867
Tyrosine log2 ratio (+MMV007839/-MMV007839) (Av 6hr, 6 μM): 0.1841
UDP log2 ratio (+MMV007839/-MMV007839) (Av 6hr, 6 μM): -0.5016
UDP-N-acetyl-D-glucosamine log2 ratio (+MMV007839/-MMV007839) (Av 6hr, 6 μM): -0.184
UDP-glucose log2 ratio (+MMV007839/-MMV007839) (Av 6hr, 6 μM): 0.0071
UMP log2 ratio (+MMV007839/-MMV007839) (Av 6hr, 6 μM): -0.08541
Uracil log2 ratio (+MMV007839/-MMV007839) (Av 6hr, 6 μM): -0.6376
Uric Acid log2 ratio (+MMV007839/-MMV007839) (Av 6hr, 6 μM): -0.1851
VD log2 ratio (+MMV007839/-MMV007839) (Av 6hr, 6 μM): 1.833
Valine log2 ratio (+MMV007839/-MMV007839) (Av 6hr, 6 μM): 0.1675
Xanthine log2 ratio (+MMV007839/-MMV007839) (Av 6hr, 6 μM): -0.5471
dADP log2 ratio (+MMV007839/-MMV007839) (Av 6hr, 6 μM): -0.4329
dATP log2 ratio (+MMV007839/-MMV007839) (Av 6hr, 6 μM): 0.01926
dCDP log2 ratio (+MMV007839/-MMV007839) (Av 6hr, 6 μM): 0.5589
dGMP log2 ratio (+MMV007839/-MMV007839) (Av 6hr, 6 μM): -0.355
dTMP log2 ratio (+MMV007839/-MMV007839) (Av 6hr, 6 μM): 0.4667
dTTP log2 ratio (+MMV007839/-MMV007839) (Av 6hr, 6 μM): 0.06317
dUMP log2 ratio (+MMV007839/-MMV007839) (Av 6hr, 6 μM): 1.053
myo-Inositol log2 ratio (+MMV007839/-MMV007839) (Av 6hr, 6 μM): -0.254
sn-Glycerol 3-phosphate log2 ratio (+MMV007839/-MMV007839) (Av 6hr, 6 μM): 1.275
sn-glycero-3-Phospho-1-inositol log2 ratio (+MMV007839/-MMV007839) (Av 6hr, 6 μM): 0.1242
Hexose-phosphate log2 ratio (+MMV007839/-MMV007839) (Av 6hr, 6 μM, medRt 15.0954): -0.2639
6-Phospho-D-gluconate log2 ratio (+MMV007839/-MMV007839) (Av 6hr, 6 μM, medRt 16.8944): -0.736
Hexose-phosphate log2 ratio (+MMV007839/-MMV007839) (Av 6hr, 6 μM, medRt 17.0788): -1.183
6-Phospho-D-gluconate log2 ratio (+MMV007839/-MMV007839) (Av 6hr, 6 μM, medRt 17.4636): -0.3794
Folate level, Log2 (treated vs control) (Exp1, 1hr): -0.2263
Geranylgeranyl pyrophosphate level, Log2 (treated vs control) (Exp1, 1hr): -0.6569
Folate level, Log2 (treated vs control) (Exp1, 3hr): -0.3477
Geranylgeranyl pyrophosphate level, Log2 (treated vs control) (Exp1, 3hr): -0.8295
Folate level, Log2 (treated vs control) (Exp1, 6hr): -0.6125
Geranylgeranyl pyrophosphate level, Log2 (treated vs control) (Exp1, 6hr): -0.9068
Folate level, Log2 (treated vs control) (Exp2, 1hr): -0.1779
Geranylgeranyl pyrophosphate level, Log2 (treated vs control) (Exp2, 1hr): -0.5207
Folate level, Log2 (treated vs control) (Exp2, 3hr): -0.4245
Geranylgeranyl pyrophosphate level, Log2 (treated vs control) (Exp2, 3hr): -0.4872
Folate level, Log2 (treated vs control) (Exp2, 6hr): -0.3923
Geranylgeranyl pyrophosphate level, Log2 (treated vs control) (Exp2, 6hr): -0.5435
Folate level, Log2 (treated vs control) (Exp3, 1hr): -0.2907
Geranylgeranyl pyrophosphate level, Log2 (treated vs control) (Exp3, 1hr): -0.5583
Folate level, Log2 (treated vs control) (Exp3, 3hr): -0.3083
Geranylgeranyl pyrophosphate level, Log2 (treated vs control) (Exp3, 3hr): -0.7313
Folate level, Log2 (treated vs control) (Exp3, 6hr): -0.4777
Geranylgeranyl pyrophosphate level, Log2 (treated vs control) (Exp3, 6hr): -0.686
Ratio, Farnesyl diphosphate (Exp1_1hr): 1.012
Ratio, Farnesyl diphosphate (Exp1_3hr): 0.9128
Ratio, Farnesyl diphosphate (Exp1_6hr): 0.7497
Ratio, Farnesyl diphosphate (Exp2_1hr): 1.018
Ratio, Farnesyl diphosphate (Exp2_3hr): 1.006
Ratio, Farnesyl diphosphate (Exp2_6hr): 0.9903
Ratio, Farnesyl diphosphate (Exp3_1hr): 0.9698
Ratio, Farnesyl diphosphate (Exp3_3hr): 1
Ratio, Farnesyl diphosphate (Exp3_6hr): 0.7551
Ratio, Folate (Exp1_1hr): 0.8548
Ratio, Folate (Exp1_3hr): 0.7858
Ratio, Folate (Exp1_6hr): 0.6541
Ratio, Folate (Exp2_1hr): 0.884
Ratio, Folate (Exp2_3hr): 0.7451
Ratio, Folate (Exp2_6hr): 0.7619
Ratio, Folate (Exp3_1hr): 0.8175
Ratio, Folate (Exp3_3hr): 0.8076
Ratio, Folate (Exp3_6hr): 0.7181
Ratio, Geranylgeranyl pyrophosphate (Exp1_1hr): 0.6342
Ratio, Geranylgeranyl pyrophosphate (Exp1_3hr): 0.5627
Ratio, Geranylgeranyl pyrophosphate (Exp1_6hr): 0.5334
Ratio, Geranylgeranyl pyrophosphate (Exp2_1hr): 0.697
Ratio, Geranylgeranyl pyrophosphate (Exp2_3hr): 0.7134
Ratio, Geranylgeranyl pyrophosphate (Exp2_6hr): 0.6861
Ratio, Geranylgeranyl pyrophosphate (Exp3_1hr): 0.6791
Ratio, Geranylgeranyl pyrophosphate (Exp3_3hr): 0.6023
Ratio, Geranylgeranyl pyrophosphate (Exp3_6hr): 0.6216
